Source: the kinase profiling compilation of Christmann-Franck et al. (2016)

Experiments:
Experiment in all cases: radiometric filter-binding kinase assay
EPHA4 (human) = EPHA4 (human) (UniProt P54764)
TTK (human) = TTK (human) (UniProt P33981)
ROCK2 (rat) = settings: accession and sequence are those of the human protein
TBK1 (human) = TBK1 (human) (UniProt Q9UHD2)
MARK2 (human) = MARK2 (human) (UniProt Q7KZI7)
EPHA2 (human) = EPHA2 (human) (UniProt P29317)
RPS6KA3 KD1 KD2 (human) = RPS6KA3 KD1 KD2 (human) (UniProt P51812)
CDK2 CCNA2 (human) = CDK2 CCNA2 (human) (UniProt P20248+P24941)
EPHB3 (human) = EPHB3 (human) (UniProt P54753)
[1] = test system: PAK2 (human), Q13177 [T402E]
PAK6 (human) = PAK6 (human) (UniProt Q9NQU5)
MST4 (human) = MST4 (human) (UniProt Q9P289)
EPHB1 (human) = EPHB1 (human) (UniProt P54762)
MINK1 (human) = MINK1 (human) (UniProt Q8N4C8)
PKN2 (human) = PKN2 (human) (UniProt Q16513)
CSK (human) = CSK (human) (UniProt P41240)
CHEK2 (human) = CHEK2 (human) (UniProt O96017)
MAPK8 (human) = MAPK8 (human) (UniProt P45983)
MAP3K11 (human) = MAP3K11 (human) (UniProt Q16584)
NUAK1 (human) = NUAK1 (human) (UniProt O60285)
MAPK10 (human) = MAPK10 (human) (UniProt P53779)
CaMK1 (human) = CaMK1 (human) (UniProt Q14012)
GCK (human) = GCK (human) (UniProt Q12851)
MAP3K7 TAB1 (human) = MAP3K7 TAB1 (human) (UniProt Q15750+O43318)
PAK4 (human) = PAK4 (human) (UniProt O96013)
IKBKB (human) = IKBKB (human) (UniProt O14920)
CHEK1 (human) = CHEK1 (human) (UniProt O14757)
AURKB (human) = AURKB (human) (UniProt Q96GD4)
TAOK1 (human) = TAOK1 (human) (UniProt Q7L7X3)
DYRK3 (human) = DYRK3 (human) (UniProt O43781)
SRC (human) = SRC (human) (UniProt P12931)
MAP2K1 (human) = MAP2K1 (human) (UniProt Q02750)
LCK (mouse) = settings: accession and sequence are those of the human protein
MYLK (human) = MYLK (human) (UniProt Q15746)
EPHB2 (human) = EPHB2 (human) (UniProt P29323)
[2] = test system: AKT1 (human), P31749 [S473D]

Sequence of AURKB (human) (Q96GD4 whole entry, looked up): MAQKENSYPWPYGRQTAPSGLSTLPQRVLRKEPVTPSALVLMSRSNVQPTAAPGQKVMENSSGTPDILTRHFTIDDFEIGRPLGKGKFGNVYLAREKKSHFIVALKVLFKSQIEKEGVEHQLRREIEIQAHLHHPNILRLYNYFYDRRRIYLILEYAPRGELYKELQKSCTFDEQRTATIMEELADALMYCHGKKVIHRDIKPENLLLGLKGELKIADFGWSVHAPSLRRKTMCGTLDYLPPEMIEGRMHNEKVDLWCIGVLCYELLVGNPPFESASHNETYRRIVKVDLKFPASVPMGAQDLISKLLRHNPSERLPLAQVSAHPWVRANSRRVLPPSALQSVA
Sequence of TBK1 (human) (Q9UHD2 whole entry, looked up): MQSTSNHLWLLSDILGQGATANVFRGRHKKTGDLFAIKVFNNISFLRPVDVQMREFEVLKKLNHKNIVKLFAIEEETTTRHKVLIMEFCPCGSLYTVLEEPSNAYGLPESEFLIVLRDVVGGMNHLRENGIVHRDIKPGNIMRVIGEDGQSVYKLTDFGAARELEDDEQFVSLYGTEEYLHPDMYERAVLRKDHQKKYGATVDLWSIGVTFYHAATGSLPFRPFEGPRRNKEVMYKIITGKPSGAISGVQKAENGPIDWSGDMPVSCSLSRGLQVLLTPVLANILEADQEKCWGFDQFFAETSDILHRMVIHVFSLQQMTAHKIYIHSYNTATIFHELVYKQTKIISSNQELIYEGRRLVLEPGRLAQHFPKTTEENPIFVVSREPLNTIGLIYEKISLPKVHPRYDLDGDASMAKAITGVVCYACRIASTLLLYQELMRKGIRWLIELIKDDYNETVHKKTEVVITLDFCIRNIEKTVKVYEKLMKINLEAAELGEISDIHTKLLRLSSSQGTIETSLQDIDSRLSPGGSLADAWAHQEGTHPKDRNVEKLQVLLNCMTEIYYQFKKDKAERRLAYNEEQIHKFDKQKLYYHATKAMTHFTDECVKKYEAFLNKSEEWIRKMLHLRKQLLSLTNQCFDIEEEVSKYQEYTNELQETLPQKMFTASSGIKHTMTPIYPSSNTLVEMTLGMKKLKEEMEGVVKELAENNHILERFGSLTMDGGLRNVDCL
Sequence of GCK (human) (Q12851 whole entry, looked up): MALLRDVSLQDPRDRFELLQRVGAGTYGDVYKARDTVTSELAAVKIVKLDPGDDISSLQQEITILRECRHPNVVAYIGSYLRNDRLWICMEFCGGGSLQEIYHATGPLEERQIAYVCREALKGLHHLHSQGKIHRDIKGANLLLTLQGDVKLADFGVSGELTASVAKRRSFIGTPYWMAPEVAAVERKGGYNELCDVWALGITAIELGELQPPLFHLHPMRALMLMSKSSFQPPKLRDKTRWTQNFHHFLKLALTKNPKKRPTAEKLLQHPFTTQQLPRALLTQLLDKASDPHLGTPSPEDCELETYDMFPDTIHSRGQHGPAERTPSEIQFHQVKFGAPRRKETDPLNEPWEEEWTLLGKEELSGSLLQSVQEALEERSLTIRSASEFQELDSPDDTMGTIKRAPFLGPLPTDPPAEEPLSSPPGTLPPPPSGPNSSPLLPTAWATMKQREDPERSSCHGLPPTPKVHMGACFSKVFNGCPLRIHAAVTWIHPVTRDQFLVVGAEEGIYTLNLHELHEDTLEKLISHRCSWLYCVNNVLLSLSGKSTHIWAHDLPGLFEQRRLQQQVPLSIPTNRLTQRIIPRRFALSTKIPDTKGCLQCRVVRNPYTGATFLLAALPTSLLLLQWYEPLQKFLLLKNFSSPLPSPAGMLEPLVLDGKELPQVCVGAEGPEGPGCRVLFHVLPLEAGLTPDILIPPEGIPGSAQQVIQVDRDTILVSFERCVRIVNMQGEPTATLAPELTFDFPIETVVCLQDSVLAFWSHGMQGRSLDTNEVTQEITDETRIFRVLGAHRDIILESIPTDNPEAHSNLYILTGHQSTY
Sequence of MAPK8 (human) (P45983 whole entry, looked up): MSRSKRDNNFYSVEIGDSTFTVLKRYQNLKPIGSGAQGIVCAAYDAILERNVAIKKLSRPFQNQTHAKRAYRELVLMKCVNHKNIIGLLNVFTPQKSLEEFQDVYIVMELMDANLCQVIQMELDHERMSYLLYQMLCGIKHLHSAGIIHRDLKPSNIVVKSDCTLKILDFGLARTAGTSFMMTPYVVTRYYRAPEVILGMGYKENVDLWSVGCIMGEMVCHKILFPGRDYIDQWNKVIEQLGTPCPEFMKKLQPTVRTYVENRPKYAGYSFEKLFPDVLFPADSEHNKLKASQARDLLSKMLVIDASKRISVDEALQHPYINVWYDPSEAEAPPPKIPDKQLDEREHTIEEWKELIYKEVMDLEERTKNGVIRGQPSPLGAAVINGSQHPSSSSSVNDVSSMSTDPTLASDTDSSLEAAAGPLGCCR
Sequence of CHEK2 (human) (O96017 whole entry, looked up): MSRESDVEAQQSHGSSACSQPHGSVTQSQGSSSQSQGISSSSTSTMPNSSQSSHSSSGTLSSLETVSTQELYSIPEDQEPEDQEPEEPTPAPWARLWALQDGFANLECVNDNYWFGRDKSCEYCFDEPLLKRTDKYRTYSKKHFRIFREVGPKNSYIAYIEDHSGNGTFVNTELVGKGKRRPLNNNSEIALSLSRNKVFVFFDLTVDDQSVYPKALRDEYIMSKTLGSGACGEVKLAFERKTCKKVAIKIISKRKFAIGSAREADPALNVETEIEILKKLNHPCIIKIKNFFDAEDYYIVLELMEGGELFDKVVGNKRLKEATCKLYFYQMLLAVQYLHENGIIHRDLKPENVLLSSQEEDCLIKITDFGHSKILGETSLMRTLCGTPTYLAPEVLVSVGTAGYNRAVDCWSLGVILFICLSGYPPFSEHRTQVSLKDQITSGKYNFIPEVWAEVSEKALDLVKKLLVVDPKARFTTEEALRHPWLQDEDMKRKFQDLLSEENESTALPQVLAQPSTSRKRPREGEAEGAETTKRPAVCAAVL
Sequence of PAK2 (human), Q13177 [T402E] (Q13177 whole entry T402E, looked up): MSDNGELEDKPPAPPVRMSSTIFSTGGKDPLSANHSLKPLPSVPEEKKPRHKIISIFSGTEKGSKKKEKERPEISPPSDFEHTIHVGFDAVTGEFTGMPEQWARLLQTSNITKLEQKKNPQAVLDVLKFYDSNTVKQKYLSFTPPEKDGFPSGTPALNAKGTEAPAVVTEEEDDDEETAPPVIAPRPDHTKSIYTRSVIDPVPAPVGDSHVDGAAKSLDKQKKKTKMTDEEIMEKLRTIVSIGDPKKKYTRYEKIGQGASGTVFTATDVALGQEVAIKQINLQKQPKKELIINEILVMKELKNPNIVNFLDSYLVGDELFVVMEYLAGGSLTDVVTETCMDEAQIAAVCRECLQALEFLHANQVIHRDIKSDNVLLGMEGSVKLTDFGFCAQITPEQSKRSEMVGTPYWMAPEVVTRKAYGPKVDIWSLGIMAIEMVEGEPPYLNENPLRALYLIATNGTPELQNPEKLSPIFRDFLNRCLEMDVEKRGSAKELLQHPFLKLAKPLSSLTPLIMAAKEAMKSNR
Sequence of EPHB3 (human) (P54753 whole entry, looked up): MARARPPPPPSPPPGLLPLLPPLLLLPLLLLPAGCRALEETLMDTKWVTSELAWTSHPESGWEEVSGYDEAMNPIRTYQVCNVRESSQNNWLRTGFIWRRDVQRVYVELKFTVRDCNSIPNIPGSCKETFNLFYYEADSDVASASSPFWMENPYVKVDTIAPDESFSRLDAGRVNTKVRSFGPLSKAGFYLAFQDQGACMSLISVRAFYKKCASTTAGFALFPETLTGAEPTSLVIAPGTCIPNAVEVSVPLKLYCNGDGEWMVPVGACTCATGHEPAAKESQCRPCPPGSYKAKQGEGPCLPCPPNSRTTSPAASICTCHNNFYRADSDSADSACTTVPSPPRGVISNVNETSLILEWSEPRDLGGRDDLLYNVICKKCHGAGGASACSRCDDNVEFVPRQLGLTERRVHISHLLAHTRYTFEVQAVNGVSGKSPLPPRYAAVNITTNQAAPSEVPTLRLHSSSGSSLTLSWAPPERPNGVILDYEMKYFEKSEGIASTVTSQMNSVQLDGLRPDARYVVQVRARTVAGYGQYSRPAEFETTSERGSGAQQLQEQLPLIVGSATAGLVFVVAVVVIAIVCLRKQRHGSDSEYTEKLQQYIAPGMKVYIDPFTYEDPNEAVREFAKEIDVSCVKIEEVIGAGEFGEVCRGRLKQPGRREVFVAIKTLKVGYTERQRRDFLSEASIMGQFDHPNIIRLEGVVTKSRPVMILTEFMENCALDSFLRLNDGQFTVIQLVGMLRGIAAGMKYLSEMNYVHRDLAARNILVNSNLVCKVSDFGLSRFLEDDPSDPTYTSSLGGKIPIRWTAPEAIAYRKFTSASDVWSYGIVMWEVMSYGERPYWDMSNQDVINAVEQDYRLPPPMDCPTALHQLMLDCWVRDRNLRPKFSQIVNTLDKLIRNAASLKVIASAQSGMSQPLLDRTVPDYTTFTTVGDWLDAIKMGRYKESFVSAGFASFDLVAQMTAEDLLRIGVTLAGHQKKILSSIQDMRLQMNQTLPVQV
Sequence of MAP2K1 (human) (Q02750 whole entry, looked up): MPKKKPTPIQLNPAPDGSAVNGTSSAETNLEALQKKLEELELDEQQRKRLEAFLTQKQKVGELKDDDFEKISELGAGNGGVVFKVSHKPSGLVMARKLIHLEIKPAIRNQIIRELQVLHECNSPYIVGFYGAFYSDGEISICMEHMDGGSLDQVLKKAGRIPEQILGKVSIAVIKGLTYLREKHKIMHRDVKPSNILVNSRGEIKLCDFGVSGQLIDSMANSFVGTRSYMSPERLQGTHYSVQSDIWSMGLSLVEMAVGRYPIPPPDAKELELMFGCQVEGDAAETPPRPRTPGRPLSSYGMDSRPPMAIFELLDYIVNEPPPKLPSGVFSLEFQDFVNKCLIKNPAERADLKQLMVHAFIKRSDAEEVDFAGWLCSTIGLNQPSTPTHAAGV

residual activity (EPHA4 (human); compound 0.01 µM): 95%
residual activity (EPHA4 (human); compound 0.1 µM): 61%
residual activity (EPHA4 (human); compound 1.0 µM): 16%
residual activity (TTK (human); compound 0.01 µM): 37%
residual activity (TTK (human); compound 0.1 µM): 13%
residual activity (TTK (human); compound 1.0 µM): 7%
residual activity (ROCK2 (rat); compound 0.01 µM): 82%
residual activity (ROCK2 (rat); compound 1.0 µM): 7%
residual activity (TBK1 (human); compound 0.01 µM): 22%
residual activity (TBK1 (human); compound 0.1 µM): 16%
residual activity (TBK1 (human); compound 1.0 µM): 12%
residual activity (MARK2 (human); compound 0.01 µM): 11%
residual activity (MARK2 (human); compound 0.1 µM): 5%
residual activity (MARK2 (human); compound 1.0 µM): 4%
residual activity (EPHA2 (human); compound 0.01 µM): 92%
residual activity (EPHA2 (human); compound 0.1 µM): 53%
residual activity (EPHA2 (human); compound 1.0 µM): 19%
residual activity (RPS6KA3 KD1 KD2 (human); compound 0.01 µM): 16%
residual activity (RPS6KA3 KD1 KD2 (human); compound 0.1 µM): 7%
residual activity (RPS6KA3 KD1 KD2 (human); compound 1.0 µM): 6%
residual activity (CDK2 CCNA2 (human); compound 0.01 µM): 18%
residual activity (CDK2 CCNA2 (human); compound 0.1 µM): 9%
residual activity (CDK2 CCNA2 (human); compound 1.0 µM): 8%
residual activity (EPHB3 (human); compound 0.01 µM): 106%
residual activity (EPHB3 (human); compound 0.1 µM): 100%
residual activity (EPHB3 (human); compound 1.0 µM): 83%
residual activity ([1]; compound 0.01 µM): 71%
residual activity ([1]; compound 0.1 µM): 19%
residual activity ([1]; compound 1.0 µM): 4%
residual activity (PAK6 (human); compound 0.01 µM): 29%
residual activity (PAK6 (human); compound 0.1 µM): 2%
residual activity (PAK6 (human); compound 1.0 µM): 1%
residual activity (MST4 (human); compound 0.01 µM): 86%
residual activity (MST4 (human); compound 0.1 µM): 26%
residual activity (MST4 (human); compound 1.0 µM): 20%
residual activity (EPHB1 (human); compound 0.01 µM): 41%
residual activity (EPHB1 (human); compound 0.1 µM): 56%
residual activity (EPHB1 (human); compound 1.0 µM): 25%
residual activity (MINK1 (human); compound 0.01 µM): 4%
residual activity (MINK1 (human); compound 0.1 µM): 3%
residual activity (MINK1 (human); compound 1.0 µM): 2%
residual activity (PKN2 (human); compound 0.01 µM): 21%
residual activity (PKN2 (human); compound 0.1 µM): 8%
residual activity (PKN2 (human); compound 1.0 µM): 6%
residual activity (CSK (human); compound 0.01 µM): 112%
residual activity (CSK (human); compound 0.1 µM): 73%
residual activity (CSK (human); compound 1.0 µM): 20%
residual activity (CHEK2 (human); compound 0.01 µM): 24%
residual activity (CHEK2 (human); compound 0.1 µM): 5%
residual activity (CHEK2 (human); compound 1.0 µM): 2%
residual activity (MAPK8 (human); compound 0.01 µM): 91%
residual activity (MAPK8 (human); compound 0.1 µM): 4%
residual activity (MAPK8 (human); compound 1.0 µM): 1%
residual activity (MAP3K11 (human); compound 0.01 µM): 17%
residual activity (MAP3K11 (human); compound 0.1 µM): 5%
residual activity (MAP3K11 (human); compound 1.0 µM): 3%
residual activity (NUAK1 (human); compound 0.01 µM): 2%
residual activity (NUAK1 (human); compound 0.1 µM): 2%
residual activity (NUAK1 (human); compound 1.0 µM): 1%
residual activity (MAPK10 (human); compound 0.01 µM): 65%
residual activity (MAPK10 (human); compound 0.1 µM): 30%
residual activity (MAPK10 (human); compound 1.0 µM): 26%
residual activity (CaMK1 (human); compound 0.01 µM): 97%
residual activity (CaMK1 (human); compound 0.1 µM): 25%
residual activity (CaMK1 (human); compound 1.0 µM): 4%
residual activity (GCK (human); compound 0.01 µM): 6%
residual activity (GCK (human); compound 0.1 µM): 4%
residual activity (GCK (human); compound 1.0 µM): 2%
residual activity (MAP3K7 TAB1 (human); compound 0.01 µM): 111%
residual activity (MAP3K7 TAB1 (human); compound 0.1 µM): 2%
residual activity (MAP3K7 TAB1 (human); compound 1.0 µM): 2%
residual activity (PAK4 (human); compound 0.01 µM): 25%
residual activity (PAK4 (human); compound 0.1 µM): 7%
residual activity (PAK4 (human); compound 1.0 µM): 7%
residual activity (IKBKB (human); compound 0.01 µM): 75%
residual activity (IKBKB (human); compound 0.1 µM): 24%
residual activity (IKBKB (human); compound 1.0 µM): 6%
residual activity (CHEK1 (human); compound 0.01 µM): 11%
residual activity (CHEK1 (human); compound 0.1 µM): 4%
residual activity (CHEK1 (human); compound 1.0 µM): 3%
residual activity (AURKB (human); compound 0.01 µM): 49%
residual activity (AURKB (human); compound 0.1 µM): 46%
residual activity (AURKB (human); compound 1.0 µM): 39%
residual activity (TAOK1 (human); compound 0.01 µM): 53%
residual activity (TAOK1 (human); compound 0.1 µM): 15%
residual activity (TAOK1 (human); compound 1.0 µM): 7%
residual activity (DYRK3 (human); compound 0.01 µM): 24%
residual activity (DYRK3 (human); compound 0.1 µM): 4%
residual activity (DYRK3 (human); compound 1.0 µM): 2%
residual activity (SRC (human); compound 0.01 µM): 78%
residual activity (SRC (human); compound 0.1 µM): 19%
residual activity (SRC (human); compound 1.0 µM): 6%
residual activity (MAP2K1 (human); compound 0.01 µM): 9%
residual activity (MAP2K1 (human); compound 0.1 µM): 0%
residual activity (MAP2K1 (human); compound 1.0 µM): 0%
residual activity (LCK (mouse); compound 0.01 µM): 44%
residual activity (LCK (mouse); compound 0.1 µM): 13%
residual activity (LCK (mouse); compound 1.0 µM): 3%
residual activity (MYLK (human); compound 0.01 µM): 48%
residual activity (MYLK (human); compound 0.1 µM): 4%
residual activity (MYLK (human); compound 1.0 µM): 1%
residual activity (EPHB2 (human); compound 0.01 µM): 108%
residual activity (EPHB2 (human); compound 0.1 µM): 89%
residual activity (EPHB2 (human); compound 1.0 µM): 34%
residual activity ([2]; compound 0.01 µM): 93%
residual activity ([2]; compound 0.1 µM): 44%
residual activity ([2]; compound 1.0 µM): 5%
SMILES: CNC(=O)C1[C@H]2O[C@@](C)([C@@H]1N)n1c3ccccc3c3c4c(c5c6ccccc6n2c5c31)C(=O)NC4 (some centres not stated)
